Assay results reported in patent US20220202905A1, “COMPOSITION FOR PREVENTING OR TREATING NEUROTROPHIC KERATITIS WHICH CONTAINS PACAP PEPTIDE OR STABILIZED PACAP PEPTIDE” (SENJU PHARMACEUTICAL CO., LTD., priority 2019, published 2022).
Numbered stars: 1 amine (or outer) side, 2 acyl side, 3 side chain; on linkers, the order of the positions; unused ones are H or OH. Square brackets hold non-standard residues; d marks the D form. Peptide text beside a SMILES is read from it. Ala(1H-tetrazol-5-yl) = N[C@@H](Cc1nnn[nH]1)C(=O)O; X1 = O=C([C@H](CCc1nnn[nH]1)N[*:1])[*:2]

Legend:
[1] = Peptide stability test, Tris buffer (pH 7.0), 60° C. storage, HPLC remaining rate; type: physicochemical; conditions: Table 7; 100 μM in Tris buffer pH 7.0
In short: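 Peptides at 100 μM in Tris buffer (pH 7.0) stored 1 or 2 weeks at 60° C.; unstored sample kept at −30° C. as initial reference. Remaining peptide quantified by reversed-phase HPLC at 220 nm (formic acid/acetonitrile gradient, 40° C. column), as water-corrected remaining rate.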

PAC1R = target: T1, PAC1R (Homo sapiens, UniProt P41586); assay: cAMP assay in PAC1R high-expressing CHO-K1 cell line; type: cell-based; conditions: Table 12; cAMP inducing effect, CHO-K1 PAC1R high-expressing cells
T1 construct: host or cells: CHO-K1
T1 sequence (P41586 21-468): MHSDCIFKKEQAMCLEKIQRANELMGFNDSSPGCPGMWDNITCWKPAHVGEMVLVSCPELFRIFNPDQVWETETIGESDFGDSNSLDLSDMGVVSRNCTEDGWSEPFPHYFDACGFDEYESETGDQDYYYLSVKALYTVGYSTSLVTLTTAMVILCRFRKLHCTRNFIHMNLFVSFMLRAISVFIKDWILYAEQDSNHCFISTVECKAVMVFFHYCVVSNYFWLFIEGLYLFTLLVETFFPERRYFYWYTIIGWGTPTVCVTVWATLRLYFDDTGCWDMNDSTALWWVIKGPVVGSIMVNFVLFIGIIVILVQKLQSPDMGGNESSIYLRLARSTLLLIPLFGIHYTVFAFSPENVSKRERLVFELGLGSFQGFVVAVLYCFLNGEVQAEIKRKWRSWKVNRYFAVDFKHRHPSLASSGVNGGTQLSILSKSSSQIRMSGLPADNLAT
Procedure: (§1) The cells were cultured for 18 to 24 hours at 37° C. in a 5% C02 incubator, adhering the cells to the plate. […] A 5-fold dilution series was then prepared with the same Cell assay buffer and used in an assay. The cAMP assay was carried out using a Hit Hunter cAMP Assay for Biologics kit (product of DiscoveRx, Cat. No. 90-0075LM25), according to the included kit instructions. […] Next, the culture medium was removed from the CHO-K1 cell culture plate, washing was performed with PBS, and the peptide-cAMP antibody liquid mixtures were added to the cells and incubated for 30 minutes under a 5% CO2 atmosphere at 37° C. A working detection solution was then added and the culture plate was shielded from light with aluminum foil and incubated at 25° C. for 1 hour. After incubation, Solution A was added and the culture plate was shielded from light with aluminum foil and then incubated at 25° C. for 3 hours. […] The obtained value for the Relative Luminescence Unit (RLU) was analyzed with GraphPad Prism Ver 6.05 (product of Graph Pad) and the EC50 value was calculated for each peptide. […] FIG. 2 and Table 11. […] A 5-fold dilution series was then prepared with the same Cell assay buffer and used in an assay. […] A 5-fold dilution series was then prepared with the same Cell assay buffer and used in an assay.

VPAC1R = target: T2, VPAC1R (Homo sapiens, UniProt P32241); assay: cAMP assay in VPAC1R high-expressing CHO-K1 cell line; type: cell-based; conditions: Table 12; cAMP inducing effect, CHO-K1 VPAC1R high-expressing cells
T2 construct: host or cells: CHO-K1
T2 sequence (P32241 31-457): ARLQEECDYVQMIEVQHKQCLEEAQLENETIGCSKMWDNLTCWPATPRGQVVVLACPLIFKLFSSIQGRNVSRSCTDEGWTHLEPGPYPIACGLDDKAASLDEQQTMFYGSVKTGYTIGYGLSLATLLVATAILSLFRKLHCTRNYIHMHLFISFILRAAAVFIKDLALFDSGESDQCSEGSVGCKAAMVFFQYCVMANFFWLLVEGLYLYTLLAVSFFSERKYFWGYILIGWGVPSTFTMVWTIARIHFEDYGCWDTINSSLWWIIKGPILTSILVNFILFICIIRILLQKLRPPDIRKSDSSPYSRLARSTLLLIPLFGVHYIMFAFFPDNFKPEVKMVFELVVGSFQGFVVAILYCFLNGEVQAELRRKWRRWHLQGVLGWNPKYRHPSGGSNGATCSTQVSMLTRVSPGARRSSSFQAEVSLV
Procedure: as §1

Row | Structure (SMILES) | remaining rate after correction for water, 60° C., 1 week preservation [1] | remaining rate after correction for water, 60° C., 2 weeks preservation [1] | EC50 (PAC1R) | EC50 (VPAC1R)
1 | CC[C@H](C)[C@H](NC(=O)CNC(=O)[C@H](Cc1nnn[nH]1)NC(=O)[C@H](CO)NC(=O)[C@H](Cc1c[nH]cn1)NC(C)=O)C(=O)N[C@@H](Cc1ccccc1)C(=O)N[C@H](C(=O)N[C@@H](Cc1nnn[nH]1)C(=O)N[C@@H](C)C(=O)N[C@@H](Cc1ccc(O)cc1)C(=O)N[C@@H](CO)C(=O)N[C@@H](CCCNC(=N)N)C(=O)N[C@@H](Cc1ccc(O)cc1)C(=O)N[C@@H](CCCNC(=N)N)C(=O)N[C@@H](CCCCN)C(=O)N[C@@H](CCC(N)=O)C(=O)N[C@@H](CC(C)C)C(=O)N[C@@H](C)C(=O)N[C@H](C(=O)N[C@@H](CCCCN)C(=O)N[C@@H](CCCCN)C(=O)N[C@@H](Cc1ccc(O)cc1)C(=O)N[C@@H](CC(C)C)C(=O)N[C@@H](C)C(=O)N[C@@H](C)C(=O)N[C@H](C(=O)N[C@@H](CC(C)C)C(N)=O)C(C)C)C(C)C)[C@@H](C)O [Peptide 15] (Ac-HS[Ala(1H-tetrazol-5-yl)]GIFT[Ala(1H-tetrazol-5-yl)]AYSRYRKQLAVKKYLAAVL-NH2) | 97.3% | 94.9% | 61 pM | 
2 | CC[C@H](C)[C@H](NC(=O)CNC(=O)[C@H](Cc1nnn[nH]1)NC(=O)[C@H](CO)NC(=O)[C@H](Cc1c[nH]cn1)NC(C)=O)C(=O)N[C@@H](Cc1ccccc1)C(=O)N[C@H](C(=O)N[C@@H](Cc1nnn[nH]1)C(=O)N[C@@H](CO)C(=O)N[C@@H](Cc1ccc(O)cc1)C(=O)N[C@@H](CO)C(=O)N[C@@H](CCCNC(=N)N)C(=O)N[C@@H](Cc1ccc(O)cc1)C(=O)N[C@@H](CCCNC(=N)N)C(=O)N[C@@H](CCCCN)C(=O)N[C@@H](CCC(N)=O)C(=O)N[C@@H](CC(C)C)C(=O)N[C@@H](C)C(=O)N[C@@H](C)C(=O)N[C@@H](CCCCN)C(=O)N[C@@H](CCCCN)C(=O)N[C@@H](Cc1ccc(O)cc1)C(=O)N[C@@H](CC(C)C)C(=O)N[C@@H](C)C(=O)N[C@@H](C)C(=O)N[C@H](C(=O)N[C@@H](CC(C)C)C(N)=O)C(C)C)[C@@H](C)O [Peptide 19] (Ac-HS[Ala(1H-tetrazol-5-yl)]GIFT[Ala(1H-tetrazol-5-yl)]SYSRYRKQLAAKKYLAAVL-NH2) | 95.8% | 92.7% |  | 44 pM
3 | CC[C@H](C)[C@H](NC(=O)CNC(=O)[C@H](Cc1nnn[nH]1)NC(=O)[C@H](CO)NC(=O)[C@H](Cc1c[nH]cn1)NC(C)=O)C(=O)N[C@@H](Cc1ccccc1)C(=O)N[C@H](C(=O)N[C@@H](Cc1nnn[nH]1)C(=O)N[C@@H](CO)C(=O)N[C@@H](Cc1ccc(O)cc1)C(=O)N[C@@H](CO)C(=O)N[C@@H](CCCNC(=N)N)C(=O)N[C@@H](Cc1ccc(O)cc1)C(=O)N[C@@H](CCCNC(=N)N)C(=O)N[C@@H](CCCCN)C(=O)N[C@@H](CCc1nnn[nH]1)C(=O)N[C@@H](CC(C)C)C(=O)N[C@@H](C)C(=O)N[C@H](C(=O)N[C@@H](CCCCN)C(=O)N[C@@H](CCCCN)C(=O)N[C@@H](Cc1ccc(O)cc1)C(=O)N[C@@H](CC(C)C)C(=O)N[C@@H](C)C(=O)N[C@@H](C)C(=O)N[C@H](C(=O)N[C@@H](CC(C)C)C(N)=O)C(C)C)C(C)C)[C@@H](C)O [Peptide 13] (Ac-HS[Ala(1H-tetrazol-5-yl)]GIFT[Ala(1H-tetrazol-5-yl)]SYSRYRK[X1]LAVKKYLAAVL-NH2) | 97.4% | 95.4% |  | 72 pM
